Legend:
Assay type in all cases: biochemical
ROCK I (AA 6-553) = target: T1, ROCK I (AA 6-553) (Homo sapiens, UniProt Q13464); test: ROCK inhibition assay, standard coupled enzyme system ("Enzyme"); conditions: enzyme-linked assay
T1 construct: ROCK I (AA 6-553)
Method in brief: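 ROCK I (AA 6-553) at 45 nM and 30 °C with 45 μM ATP and 200 μM peptide, in 100 mM HEPES pH 7.5, 10 mM MgCl2, 25 mM NaCl, 2 mM DTT, 1.5% DMSO. ADP output read by a PK/LDH coupled system: 2.5 mM PEP, 350 μM NADH, 30 μg/ml PK, 10 μg/ml LDH.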

JAK3 = target: T2, JAK3 (Homo sapiens, UniProt P52333); test: JAK3 inhibition assay (standard radioactive enzyme assay); conditions: average Ki if more than one value determined
T2 sequence (P52333 1-1124): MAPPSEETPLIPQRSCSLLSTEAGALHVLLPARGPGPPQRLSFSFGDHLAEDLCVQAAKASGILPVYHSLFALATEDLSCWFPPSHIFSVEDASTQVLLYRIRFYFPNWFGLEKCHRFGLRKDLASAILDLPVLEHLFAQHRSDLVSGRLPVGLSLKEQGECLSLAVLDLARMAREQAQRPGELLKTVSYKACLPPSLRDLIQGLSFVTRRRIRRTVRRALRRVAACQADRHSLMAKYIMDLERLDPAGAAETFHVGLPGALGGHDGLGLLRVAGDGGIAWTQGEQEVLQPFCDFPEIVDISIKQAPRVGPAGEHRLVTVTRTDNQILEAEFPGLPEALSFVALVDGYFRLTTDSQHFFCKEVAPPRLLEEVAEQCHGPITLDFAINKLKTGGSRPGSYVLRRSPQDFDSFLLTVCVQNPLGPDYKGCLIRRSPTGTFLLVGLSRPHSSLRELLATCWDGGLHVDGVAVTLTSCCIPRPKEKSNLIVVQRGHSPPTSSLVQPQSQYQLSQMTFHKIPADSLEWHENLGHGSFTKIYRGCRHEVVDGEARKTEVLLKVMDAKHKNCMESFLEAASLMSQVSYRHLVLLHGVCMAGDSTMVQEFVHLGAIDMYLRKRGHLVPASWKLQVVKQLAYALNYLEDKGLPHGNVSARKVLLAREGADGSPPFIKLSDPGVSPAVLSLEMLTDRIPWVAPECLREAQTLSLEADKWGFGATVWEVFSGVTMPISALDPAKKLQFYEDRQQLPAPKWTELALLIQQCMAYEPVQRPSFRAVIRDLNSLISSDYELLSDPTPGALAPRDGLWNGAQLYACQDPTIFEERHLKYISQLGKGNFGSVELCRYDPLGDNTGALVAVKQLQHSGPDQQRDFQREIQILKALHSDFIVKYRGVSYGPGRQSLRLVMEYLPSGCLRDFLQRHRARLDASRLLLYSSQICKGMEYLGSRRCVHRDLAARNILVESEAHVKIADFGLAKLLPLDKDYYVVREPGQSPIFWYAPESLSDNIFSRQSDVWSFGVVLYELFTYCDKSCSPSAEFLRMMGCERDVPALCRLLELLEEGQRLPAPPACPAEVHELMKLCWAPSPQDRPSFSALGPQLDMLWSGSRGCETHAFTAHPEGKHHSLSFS
Description: (§1) Compounds were screened for their ability to inhibit JAK3 using a standard radioactive enzyme assay. 1.5 μL/well of a DMSO stock containing serial dilutions of a compound of the present invention (concentrations ranging from 667 μM to 46 nM) was placed in a 96 well polycarbonate plate. 50 μL per well of kinase buffer (100 mM HEPES (pH 7.4), 10 mM MgCl2, 25 mM NaCl, 1 mM DTT, and 0.01% bovine serum albumin (BSA)) containing 2 μM poly(Glu)4Tyr and 10 μM ATP was also added to the plate. To initiate the reaction, 50 μL kinase buffer containing 2 nM JAK3 enzyme was added. Final ATP concentration was 5 μM [γ-^33P] ATP (200 μCi ^33P ATP/μmol ATP (Perkin Elmer, Cambridge, Mass.). After 20 minutes at room temperature (25° C.), the reaction was stopped by adding 50 μL 20% trichloroacetic acid (TCA)/0.4 mM ATP to each well. The entire content of each well was then transferred to a 96 well glass fiber filter plate using a TomTek Cell Harvester. After washing, 60 μL scintillation fluid was added and ^33P incorporation detected using a Perkin Elmer TopCount. After removing mean background values for all of the data points the data was fit using Prism software to obtain a Ki(app). Inhibition of JAK2 was measured as above except that final poly(Glu)4Tyr concentration was 15 μM and final ATP concentration was 12 μM.

JAK2 = JAK2 (Homo sapiens, UniProt O60674); test: JAK2 inhibition assay (radioactive enzyme assay, as for JAK3); conditions: average Ki if more than one value determined
Description: as §1

[1] = target: T3, full length Aurora-A (AA 1-403) (Homo sapiens, UniProt O14965); test: Aurora-A inhibition assay, standard coupled enzyme system; conditions: average Ki if more than one value determined
T3 construct: full length Aurora-A (AA 1-403)
T3 sequence (O14965 1-403): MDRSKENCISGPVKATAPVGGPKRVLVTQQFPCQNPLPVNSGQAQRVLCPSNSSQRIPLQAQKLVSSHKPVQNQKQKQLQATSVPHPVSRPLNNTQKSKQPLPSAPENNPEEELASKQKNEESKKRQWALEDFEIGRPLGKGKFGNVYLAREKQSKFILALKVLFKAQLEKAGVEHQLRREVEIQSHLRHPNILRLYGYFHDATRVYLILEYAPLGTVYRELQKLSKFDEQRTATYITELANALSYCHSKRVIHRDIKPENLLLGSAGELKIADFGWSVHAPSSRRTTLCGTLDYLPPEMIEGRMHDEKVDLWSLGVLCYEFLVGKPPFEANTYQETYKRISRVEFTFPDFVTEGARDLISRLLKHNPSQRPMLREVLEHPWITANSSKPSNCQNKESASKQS

Chain of JAK2 (O60674 whole entry, species assumed): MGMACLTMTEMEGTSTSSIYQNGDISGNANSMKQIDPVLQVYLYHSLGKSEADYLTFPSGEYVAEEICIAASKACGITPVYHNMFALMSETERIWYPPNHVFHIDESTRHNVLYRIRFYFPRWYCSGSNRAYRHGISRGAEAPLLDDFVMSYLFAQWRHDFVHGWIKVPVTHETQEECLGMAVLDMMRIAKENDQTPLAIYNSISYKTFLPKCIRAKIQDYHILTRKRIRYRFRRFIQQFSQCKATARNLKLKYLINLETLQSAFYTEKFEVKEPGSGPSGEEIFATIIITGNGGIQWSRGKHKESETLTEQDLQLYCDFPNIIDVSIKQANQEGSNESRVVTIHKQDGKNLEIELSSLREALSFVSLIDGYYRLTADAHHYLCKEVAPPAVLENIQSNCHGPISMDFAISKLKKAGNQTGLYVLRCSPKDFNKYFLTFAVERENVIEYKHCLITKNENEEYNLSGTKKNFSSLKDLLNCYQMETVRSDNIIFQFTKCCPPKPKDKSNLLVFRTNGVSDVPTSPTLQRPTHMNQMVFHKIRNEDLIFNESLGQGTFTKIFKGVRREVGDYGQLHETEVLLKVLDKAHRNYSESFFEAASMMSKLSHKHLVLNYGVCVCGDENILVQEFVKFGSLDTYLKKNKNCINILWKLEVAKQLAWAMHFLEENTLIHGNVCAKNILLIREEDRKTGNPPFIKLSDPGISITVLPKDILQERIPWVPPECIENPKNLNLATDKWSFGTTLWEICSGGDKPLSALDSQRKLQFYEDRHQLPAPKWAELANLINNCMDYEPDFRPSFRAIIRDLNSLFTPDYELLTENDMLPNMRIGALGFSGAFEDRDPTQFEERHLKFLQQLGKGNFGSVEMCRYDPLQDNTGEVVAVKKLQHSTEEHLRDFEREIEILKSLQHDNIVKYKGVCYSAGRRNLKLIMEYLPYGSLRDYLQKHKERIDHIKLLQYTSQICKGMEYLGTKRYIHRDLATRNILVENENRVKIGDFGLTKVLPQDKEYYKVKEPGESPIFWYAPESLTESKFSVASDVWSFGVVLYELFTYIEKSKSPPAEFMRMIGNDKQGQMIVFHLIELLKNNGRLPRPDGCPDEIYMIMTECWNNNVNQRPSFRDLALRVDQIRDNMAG
T1 sequence (Q13464 6-553, species assumed): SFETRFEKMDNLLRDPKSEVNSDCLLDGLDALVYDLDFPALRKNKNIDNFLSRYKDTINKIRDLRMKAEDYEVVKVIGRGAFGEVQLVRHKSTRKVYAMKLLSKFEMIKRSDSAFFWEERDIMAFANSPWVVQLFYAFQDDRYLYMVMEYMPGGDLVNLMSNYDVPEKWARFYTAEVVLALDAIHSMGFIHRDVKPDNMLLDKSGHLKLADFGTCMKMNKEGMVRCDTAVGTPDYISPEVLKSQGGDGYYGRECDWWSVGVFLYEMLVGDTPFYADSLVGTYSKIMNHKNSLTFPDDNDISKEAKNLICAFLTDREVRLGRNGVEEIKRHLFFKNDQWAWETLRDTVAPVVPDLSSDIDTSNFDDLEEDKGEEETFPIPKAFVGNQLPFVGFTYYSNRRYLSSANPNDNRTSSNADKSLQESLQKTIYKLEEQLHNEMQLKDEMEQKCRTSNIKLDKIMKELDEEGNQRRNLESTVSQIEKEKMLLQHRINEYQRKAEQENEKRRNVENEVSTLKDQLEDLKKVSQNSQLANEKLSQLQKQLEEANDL

Row | Ki (ROCK I (AA 6-553)) | Ki (JAK3) | Ki (JAK2) | Ki [1] | Structure (SMILES)
1 | 500 to 5000 nM | < 500 nM | < 500 nM | < 500 nM | Cc1cnc2[nH]cc(-c3cccc(NCc4ccccc4)n3)c2c1 [Compound 39]
2 | 500 to 5000 nM | < 500 nM | < 500 nM | < 500 nM | CC(=O)N1[C@H](C)CN(c2cccc(-c3c[nH]c4ncc(C)cc34)n2)C[C@@H]1C [Compound 41]
3 | 500 to 5000 nM | < 500 nM | < 500 nM | < 500 nM | O=C(O)c1ccc(-c2c[nH]c3ncc(Cl)cc23)nc1NCc1ccccc1 [Compound 42]
4 | – | 500 to 5000 nM | > 5000 nM | 500 to 5000 nM | CC(=O)N1[C@H](C)CN(c2cccc(-c3c[nH]c4ncc(C(=O)N5CCNCC5)cc34)n2)C[C@@H]1C [Compound 56]
5 | < 500 nM | < 500 nM | < 500 nM | – | O[C@H]1Cc2ccccc2[C@H]1Nc1cccc(-c2c[nH]c3ncc(Cl)cc23)n1 [Compound 136]
6 | 500 to 5000 nM | < 500 nM | < 500 nM | – | O[C@@H]1Cc2ccccc2[C@@H]1Nc1cccc(-c2c[nH]c3ncc(Cl)cc23)n1 [Compound 137]
7 | 500 to 5000 nM | < 500 nM | < 500 nM | – | C=CC(=O)Nc1cnc2[nH]cc(-c3cccc(N4CCCN(C(=O)CC#N)CC4)n3)c2c1 [Compound 138]
8 | 500 to 5000 nM | < 500 nM | < 500 nM | – | C=CC(=O)Nc1cnc2[nH]cc(-c3cccc(N4CCCN(C(C)=O)CC4)n3)c2c1 [Compound 139]
9 | 500 to 5000 nM | < 500 nM | < 500 nM | – | CC(=O)Nc1cnc2[nH]cc(-c3cccc(N4CCCN(C(C)=O)CC4)n3)c2c1 [Compound 140]
10 | 500 to 5000 nM | < 500 nM | < 500 nM | – | CCC(=O)Nc1cnc2[nH]cc(-c3cccc(N4CCCN(C(C)=O)CC4)n3)c2c1 [Compound 141]
11 | 500 to 5000 nM | < 500 nM | 500 to 5000 nM | – | CC(C)Oc1cccc(-c2c[nH]c3ncc(Cl)cc23)c1 [Compound 143]
12 | 500 to 5000 nM | < 500 nM | < 500 nM | – | CN(C)c1cccc(-c2c[nH]c3ncc(Cl)cc23)c1 [Compound 144]
13 | 500 to 5000 nM | < 500 nM | < 500 nM | – | Clc1cnc2[nH]cc(-c3cccc(NCc4ccccc4)c3)c2c1 [Compound 145]
14 | 500 to 5000 nM | < 500 nM | < 500 nM | – | CC(=O)N1[C@H](C)CN(c2cccc(-c3c[nH]c4ncc(Cl)cc34)c2)C[C@@H]1C [Compound 146]
15 | 500 to 5000 nM | < 500 nM | < 500 nM | – | O=C(O)c1cc(NCc2ccccc2)cc(-c2c[nH]c3ncc(Cl)cc23)c1 [Compound 147]
16 | < 500 nM | < 500 nM | 500 to 5000 nM | – | Nc1cc(C(=O)O)cc(-c2c[nH]c3ncc(Cl)cc23)c1 [Compound 148]
17 | 500 to 5000 nM | < 500 nM | < 500 nM | – | CC(=O)N1CCCN(c2cc(C#N)cc(-c3c[nH]c4ncc(Cl)cc34)n2)CC1 [Compound 149]
18 | 500 to 5000 nM | < 500 nM | < 500 nM | – | CC(=O)Nc1cc(-c2c[nH]c3ncc(Cl)cc23)nc(N2C[C@@H](C)N(C(C)=O)[C@@H](C)C2)c1 [Compound 160]
19 | 500 to 5000 nM | < 500 nM | < 500 nM | – | CC(=O)N1[C@H](C)CN(c2cccc(-c3c[nH]c4ncc(NC(=O)[C@H]5CCCCN5)cc34)n2)C[C@@H]1C [Compound 171]

Row | Ki (ROCK I (AA 6-553)) | Ki (JAK3) | Ki (JAK2) | Ki [1] | Structure (SMILES)
20 | < 500 nM | < 500 nM | < 500 nM | – | CC(=O)N1[C@H](C)CN(c2cccc(-c3c[nH]c4ncc(NC(=O)c5ccccc5Cl)cc34)n2)C[C@@H]1C [Compound 173]
21 | 500 to 5000 nM | 500 to 5000 nM | 500 to 5000 nM | – | O=C(O)Cc1cccc(-c2c[nH]c3ncc(Cl)cc23)c1 [Compound 178]
22 | 500 to 5000 nM | < 500 nM | < 500 nM | – | CCC(C)C(=O)Nc1cnc2[nH]cc(-c3cccc(N4C[C@@H](C)N(C(C)=O)[C@@H](C)C4)n3)c2c1 (stereo partly drawn) [Compound 180]
23 | 500 to 5000 nM | < 500 nM | < 500 nM | – | Clc1cnc2[nH]cc(-c3ccccc3)c2c1 [Compound 183]
24 | 500 to 5000 nM | < 500 nM | 500 to 5000 nM | – | Clc1cnc2[nH]cc(-c3ccccn3)c2c1 [Compound 184]
25 | – | < 500 nM | < 500 nM | < 500 nM | Clc1cnc2[nH]cc(-c3cccc(CNc4ccccc4)c3)c2c1 [Compound 186]
26 | 500 to 5000 nM | < 500 nM | < 500 nM | – | CC(=O)N1[C@H](C)CN(c2cccc(-c3c[nH]c4ncc(NC(=O)c5ccc(F)cc5)cc34)n2)C[C@@H]1C [Compound 189]
27 | < 500 nM | < 500 nM | < 500 nM | – | CC(=O)N1[C@H](C)CN(c2cccc(-c3c[nH]c4ncc(OCc5ccccc5)cc34)n2)C[C@@H]1C [Compound 193]
28 | 500 to 5000 nM | < 500 nM | < 500 nM | – | CC(=O)N1[C@H](C)CN(c2cccc(-c3c[nH]c4ncc(OCCCN(C)C)cc34)n2)C[C@@H]1C [Compound 194]
29 | 500 to 5000 nM | < 500 nM | 500 to 5000 nM | – | Clc1cnc2[nH]cc(-c3ccc4ccccc4n3)c2c1 [Compound 195]
30 | 500 to 5000 nM | 500 to 5000 nM | > 5000 nM | – | Cc1cc(C(F)(F)F)cc(-c2c[nH]c3ncc(Cl)cc23)n1 [Compound 196]
31 | 500 to 5000 nM | < 500 nM | 500 to 5000 nM | – | Cc1cc(-c2c[nH]c3ncc(Cl)cc23)nc2ccccc12 [Compound 197]
32 | 500 to 5000 nM | 500 to 5000 nM | > 5000 nM | – | Cc1cc(-c2c[nH]c3ncc(Cl)cc23)c2ccccc2n1 [Compound 198]
33 | 500 to 5000 nM | < 500 nM | 500 to 5000 nM | – | Clc1cnc2[nH]cc(-c3ccc4ccccc4c3)c2c1 [Compound 199]
34 | 500 to 5000 nM | < 500 nM | 500 to 5000 nM | – | Clc1cnc2[nH]cc(-c3ccc4ncccc4c3)c2c1 [Compound 200]
35 | 500 to 5000 nM | < 500 nM | < 500 nM | – | COc1cccc(-c2c[nH]c3ncc(Cl)cc23)n1 [Compound 201]
36 | 500 to 5000 nM | 500 to 5000 nM | 500 to 5000 nM | – | Clc1cnc2[nH]cc(-c3cccc4cccnc34)c2c1 [Compound 202]
37 | 500 to 5000 nM | < 500 nM | < 500 nM | – | CC(C)(O)c1cccc(-c2c[nH]c3ncc(Cl)cc23)n1 [Compound 203]

Reference: patent US8501446B2 (Vertex Pharmaceuticals Incorporated, priority 2004, dated 2013)
